Reference: US12686690B2, “Macrocyclic urea orexin receptor agonists” (Merck Sharp & Dohme LLC, priority 2020, dated 2026)

Biological target: T1, hOX2R (Homo sapiens, UniProt O43614)
T1 construct: expressed in transfected cells; host or cells: CHO cells (G418 selection)
T1 sequence (O43614 1-444): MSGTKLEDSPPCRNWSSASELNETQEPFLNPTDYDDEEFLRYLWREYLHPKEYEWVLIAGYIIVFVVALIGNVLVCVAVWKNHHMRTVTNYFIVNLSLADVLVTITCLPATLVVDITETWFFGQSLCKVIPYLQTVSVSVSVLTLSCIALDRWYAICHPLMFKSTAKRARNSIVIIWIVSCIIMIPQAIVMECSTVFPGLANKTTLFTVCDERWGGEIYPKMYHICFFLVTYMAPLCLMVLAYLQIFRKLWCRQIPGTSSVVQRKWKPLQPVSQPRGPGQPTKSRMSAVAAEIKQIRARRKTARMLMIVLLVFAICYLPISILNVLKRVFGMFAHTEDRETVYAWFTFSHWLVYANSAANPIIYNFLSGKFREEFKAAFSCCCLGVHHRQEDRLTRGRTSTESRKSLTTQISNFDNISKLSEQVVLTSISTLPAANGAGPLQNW
Experiment: hOX2R IPone assay (orexin receptor agonism)
Format: cell-based
Details: IPone readout; for hOX2R_Ipone max %act: maximal activation; for EC50: orexin receptor agonist, read-out: hOX2R_IPone EC50

Row | Compound | hOX2R_Ipone max %act | EC50
1 | CCN1C(=O)NCCCNCCOc2nc(cn3ccnc23)-c2cccc(c2)[C@H]1C [Example 11] | 75.54% | 778 nM
2 | CCN1C(=O)NCCCCCCOc2nc(cn3ccnc23)-c2cccc(c2)[C@H]1C [Example 12, (12R)-13-ethyl-12-methyl-12,13,16,17,18,19, 20,21-octahydro-6,23-(azeno)-11,7-(metheno) imidazo[2,1-c][1,4,13,15]oxa-triazacyclohenicosin-14(15H)-one] | 99.76% | 20.3 nM
3 | CCN1C(=O)NCCCC(C)(C)COc2nc(cn3ccnc23)-c2cccc(c2)[C@H]1C [Example 13, (12R)-13-ethyl-12,19,19-tri-methyl-12,13,15, 16,17,18,19,20-octahydro-14H-6,22-(azeno)-11,7-(metheno) imidazo[2,1-c][1,4,13,15]oxa-triazacycloicosin-14-one] | 98.2% | 634 nM
4 | CCN1C(=O)NCCCOCCOc2nc(cn3ccnc23)-c2cccc(c2)[C@H]1C [Example 14, (12R)-13-ethyl-12-methyl-12,13,15,16,17,18, 20,21-octahydro-14H-6,23-(azeno)-11,7-(metheno)imidazo [2,1-f][1,4,7,16, 18]dioxatriaza-cyclohenicosin-14-one] | 101% | 9.7 nM
5 | CCN1CCCOc2nc(cn3ccnc23)-c2cccc(c2)[C@@H](C)N(CC)C(=O)NCC1 [Example 15, (12R)-13,18-diethyl-12-methyl-12,13,16, 17,18,19,20,21-octahydro-6,23-(azeno)-11,7-(metheno) imidazo[2,1-c][1,4,13,15,18]oxa-tetraazacyclo-henicosin-14(15H)-one] | 96.2% | 1180 nM
6 | CCN1C(=O)NCCOCCCOc2nc(cn3ccnc23)-c2cccc(c2)[C@H]1C [Example 17, (12R)-13-ethyl-12-methyl-12,13, 16,17,20,21-hexahydro-19H-6,23-(azeno)-11,7-(metheno) imidazo[1,2-o][1, 18,4,6,15]dioxa-triazacyclohenicosin-14(15H)-one] | 99.6% | 19.4 nM
7 | CCN1C(=O)NCc2nc(cs2)CCOc2nc(cn3ccnc23)-c2cccc(c2)[C@H]1C [Example 22, (R,27E,6^2Z)-10-ethyl-11-methyl-3-oxa-8,10-diaza-6(4,2)-thiazola-2(6,8)-imidazo[1,2-a]pyrazina-1(1,3)-benzenacycloundecaphan-9-one] | 94.8% | 82.6 nM
8 | CCN1C(=O)NCc2nc(no2)CCOc2nc(cn3ccnc23)-c2cccc(c2)[C@H]1C [Example 23, (R,27E,64Z)-10-ethyl-11-methyl-3-oxa-8,10-diaza-6(3,5)-oxadiazola-2(6,8)-imidazo[1,2-a]pyrazina-1(1,3)-benzenacyclo-undecaphan-9-one] | 64.2% | 1010 nM
9 | CCN1C(=O)NCCc2nc(no2)COc2nc(cn3ccnc23)-c2cccc(c2)[C@H]1C [Example 24, (R,27E,54Z)-10-ethyl-11-methyl-3-oxa-8,10-diaza-5(3,5)-oxadiazola-2(6,8)-imidazo[1,2-a]pyrazina-1(1,3)-benzenacyclo-undecaphan-9-one] | 61.5% | 814 nM
10 | CCN1C(=O)NCC(C(F)(F)F)N(C)CCCOc2nc(cn3ccnc23)-c2cccc(c2)C1C [Example 26A, (3R,E)-4-ethyl-3,9-dimethyl-8-(trifluoromethyl)-13-oxa-4,6,9-triaza-1(6,8)-imidazo[1,2-a]pyrazina-2(1,3)-benzenacyclotridecaphan-5-one] | 99.4% | 13.9 nM
11 | CCN1C(=O)NCC(C(F)(F)F)N(C)CCCOc2nc(cn3ccnc23)-c2cccc(c2)C1C [Example 26B, (3R,E)-4-ethyl-3,9-dimethyl-8-(trifluoromethyl)-13-oxa-4,6,9-triaza-1(6,8)-imidazo[1,2-a]pyrazina-2(1,3)-benzenacyclotridecaphan-5-one] | 98.8% | 12 nM
